Assay: Study HDP-CDV-201: safety and tolerability (adverse events, laboratory abnormalities, discontinuations)
Format: in vivo, human (adult allogeneic HSCT recipients)
Protocol: Clinical Studies of HDP-CDV were performed and described in detail in the following Examples. For example, HDP-CDV-201 is a placebo-controlled, dose-escalating trial in HSCT CMV (R+) recipients, evaluating the ability of HDP-CDV to prevent or control CMV infection was carried out. Five cohorts were established in which participants or subjects received either placebo or the HDP-CDV orally, in doses ranging from 40 mg weekly (QW) to 200 mg twice weekly (BIW). Subjects who were post-HSCT were enrolled at the time of engraftment and randomized to HDP-CDV or placebo (3 to 1 ratio) and received blinded therapy until approximately 100 day post-transplantation. HDP-CDV doses were 40 mg QW, 100 mg QW, 200 mg QW, 200 mg BIW and 100 mg BIW. Escalation to the next dose was decided by the data monitoring committee after review of the safety data from the previous Cohort. Subjects who developed CMV disease or CMV infection requiring pre-emptive therapy with local standard of care were discontinued from blinded therapy and followed for 4 weeks. Subjects who completed treatment with blinded therapy were followed for 8 weeks post-therapy.
Data from Study HDP-CDV-201 also provided characterization of the safety and tolerability profile of HDP-CDV when administered for the prevention or control of CMV infection in high risk (R^+) post-HSCT adult subjects.
The Safety population (SAFETY) included all randomized subjects who took at least one dose of study treatment. This population was used to summarize safety outcomes based on the treatment actually received, in cases where a subject was treated contrary to the randomization schedule.
The safety and tolerability profile of HDP-CDV, including subject demographics and Baseline characteristics; the AE profile; and laboratory abnormalities of interest were analyzed in the cohorts followed in this investigation.
Subjects completing the treatment period received a full course of study medication; those completing the entire study attended visits through 8 weeks of follow up. Subjects who discontinued treatment may have done so for protocol specified reasons (e.g. development of clinically significant CMV infection requiring preemptive treatment with excluded anti-CMV medications) or for other reasons (e.g., withdrawal, adverse events, loss to follow-up). The disposition of subjects in Study HDP-CDV-201 during the double-blind, placebo-controlled treatment period (through Week 11) is listed by dosing Cohort in TABLE 23.
Adverse events were examined by severity to ensure that all safety signals were identified in this study population. Because of the frequency of events in HSCT recipients, particular attention was given to evaluation of Grade 3 […], 4 (severe), and 5 (fatal) adverse events.
Only those preferred terms for which at least one Grade 3 or higher event was experienced in any treatment group are listed. Cytomegalovirus-related AEs are excluded from this analysis.
HDP-CDV is a lipid conjugate of CDV. Because CDV is known to have adverse effects on renal function and bone marrow, decreased GFR and persistent neutropenia were identified as AEs of special interest. Key renal and hematological (TABLE 30) laboratory parameters were measured and listed below by Study HDP-CDV-201 treatment groups. TABLE 30 includes abnormal levels of serum creatinine, neutrophils, platelets, WBCs, and hemoglobin and includes data at Screening and during the treatment period.
A common metric for unit based dosing of medications is by weight (mg/kg). When the distribution of weights was examined for all subjects participating in the study, the median was 78 kg and the lower 25th percentile weight was approximately 65 kg, which translates to a cut-off of ˜3 mg/kg for a 200 mg total weekly dose. Based upon this approach, a cut-off of 3 mg/kg was used to assess the frequency of diarrhea and associated GI AEs reported for the subjects in Cohorts 3 or 4a (TABLE 40).

CCCCCCCCCCCCCCCCOCCCOP(=O)(O)COC(CO)Cn1ccc(N)nc1=O (stereo not drawn) [HDP-CDV]
12 (30.8%): Intensity of Gastrointestinal AEs, Grade 1, subjects (Cohort 3, 200 mg QW)
2.52 fold: Serum ALT level, Median fold increase from Baseline at Follow-up Week 1 (Cohort 3, 200 mg QW)
4 (10.3%): Gastrointestinal AE Dyspepsia, subjects (Cohort 3, 200 mg QW) | TEAE Nausea Grade 2, subjects (Cohort 3, 200 mg QW)
not related: Relationship of hepatobiliary AE acute liver injury, subject 3007 (Cohort 3) | Relationship of hepatobiliary AE acute liver injury, subject 3025 (Cohort 3) | Relationship of hepatobiliary AE gallbladder sludge, subject 3044 (Cohort 3) | Relationship of hepatobiliary AE hyperbilirubenemia, subject 3030 (Cohort 3) | Relationship of hepatobiliary AE hyperbilirubinemia, subject 3009 (Cohort 3) | Relationship of hepatobiliary AE hyperbilirubinemia, subject 3044 (Cohort 3) | Relationship of hepatobiliary AE jaundiced, subject 3030 (Cohort 3)
0%: Proportion of Subjects with Stage 3 or 4 Gut GVHD (Cohort 3, 200 mg QW)
4: Grade of hepatobiliary AE hyperbilirubinemia, subject 3044 (Cohort 3)
2 subject(s): subjects discontinued due to neutropenia (Cohort 3)
11 (28.2%): Gastrointestinal AE Nausea, subjects (Cohort 3, 200 mg QW) | TEAE Nausea Overall Frequency, subjects (Cohort 3, 200 mg QW)
2 (5.1%): GI AE Leading to Study Drug Discontinuation: Dyspepsia, subjects (Cohort 3, 200 mg QW) | Gastrointestinal AE Constipation, subjects (Cohort 3, 200 mg QW) | Gastrointestinal AE GERD, subjects (Cohort 3, 200 mg QW) | Hepatobiliary clinical AE Liver injury, subjects (Cohort 3, 200 mg QW) | Intensity of Gastrointestinal AEs, Grade 3, subjects (Cohort 3, 200 mg QW) | Intensity of Gastrointestinal AEs, Grade 4, subjects (Cohort 3, 200 mg QW) | TEAE Diarrhea Grade 3, subjects (Cohort 3, 200 mg QW) | TEAE Hypokalaemia Grade 2, subjects (Cohort 3, 200 mg QW)
5 (13.5%): Alkaline Phosphatase (Screening) >ULN-[…] ULN, subjects (Cohort 3, 200 mg QW)
14 (36.8%): Alkaline Phosphatase (any time during therapy) >ULN-[…] ULN, subjects (Cohort 3, 200 mg QW)
not recovered/not: Outcome of hepatobiliary AE acute liver injury, subject 3007 (Cohort 3) | Outcome of hepatobiliary AE gallbladder sludge, subject 3044 (Cohort 3) | Outcome of hepatobiliary AE hyperbilirubenemia, subject 3030 (Cohort 3) | Outcome of hepatobiliary AE hyperbilirubinemia, subject 3044 (Cohort 3) | Outcome of hepatobiliary AE jaundiced, subject 3030 (Cohort 3)
5 (13.2%): ALT (any time during therapy) >5 × ULN-10 × ULN, subjects (Cohort 3, 200 mg QW) | AST (any time during therapy) >3 × ULN-5 × ULN, subjects (Cohort 3, 200 mg QW)
6 (15.4%): Gastrointestinal AE Vomiting, subjects (Cohort 3, 200 mg QW)
recovered/resolved: Outcome of hepatobiliary AE acute liver injury, subject 3025 (Cohort 3) | Outcome of hepatobiliary AE hyperbilirubinemia, subject 3009 (Cohort 3)
2: Grade of hepatobiliary AE gallbladder sludge, subject 3044 (Cohort 3) | Grade of hepatobiliary AE hyperbilirubenemia, subject 3030 (Cohort 3) | Grade of hepatobiliary AE jaundiced, subject 3030 (Cohort 3)
1 (2.6%): ALT (any time during therapy) >20 × ULN, subjects (Cohort 3, 200 mg QW) | AST (any time during therapy) >5 × ULN-10 × ULN, subjects (Cohort 3, 200 mg QW) | GI AE Leading to Study Drug Discontinuation: Diarrhoea, subjects (Cohort 3, 200 mg QW) | Gastrointestinal AE Abdominal discomfort, subjects (Cohort 3, 200 mg QW) | Gastrointestinal AE Abdominal pain upper, subjects (Cohort 3, 200 mg QW) | Gastrointestinal AE Diverticulum intestinal haemorragic, subjects (Cohort 3, 200 mg QW) | Gastrointestinal AE Flatulence, subjects (Cohort 3, 200 mg QW) | Hepatobiliary clinical AE Jaundice, subjects (Cohort 3, 200 mg QW) | TEAE Abdominal pain Grade 2, subjects (Cohort 3, 200 mg QW) | TEAE Abdominal pain Grade 3, subjects (Cohort 3, 200 mg QW) | TEAE Nausea Grade 3, subjects (Cohort 3, 200 mg QW) | TEAE Vomiting Grade 2, subjects (Cohort 3, 200 mg QW) | TEAE Vomiting Grade 3, subjects (Cohort 3, 200 mg QW)
13 (33.3%): Gastrointestinal AE Diarrhoea, subjects (Cohort 3, 200 mg QW) | TEAE Diarrhea Overall Frequency, subjects (Cohort 3, 200 mg QW)
3 (7.7%): GI AEs Leading to Study Drug Discontinuation: Total subjects discontinued (Cohort 3, 200 mg QW) | Hepatobiliary clinical AE Hyperbilirubinaemia, subjects (Cohort 3, 200 mg QW)
4 (10.5%): ALT (any time during therapy) >3 × ULN-5 × ULN, subjects (Cohort 3, 200 mg QW)
3.13 fold: Serum ALT level, Peak Median fold increase from Baseline (Cohort 3, 200 mg QW)
1: Grade of hepatobiliary AE acute liver injury, subject 3025 (Cohort 3) | Grade of hepatobiliary AE hyperbilirubinemia, subject 3009 (Cohort 3)
0: ALT (Screening) >3 × ULN-5 × ULN, subjects (Cohort 3, 200 mg QW) | ALT (Screening) >5 × ULN-10 × ULN, subjects (Cohort 3, 200 mg QW) | ALT (Screening) >10 × ULN-20 × ULN, subjects (Cohort 3, 200 mg QW) | ALT (Screening) >20 × ULN, subjects (Cohort 3, 200 mg QW) | ALT (any time during therapy) >10 × ULN-20 × ULN, subjects (Cohort 3, 200 mg QW) | AST (Screening) >3 × ULN-5 × ULN, subjects (Cohort 3, 200 mg QW) | AST (Screening) >5 × ULN-10 × ULN, subjects (Cohort 3, 200 mg QW) | AST (Screening) >10 × ULN-20 × ULN, subjects (Cohort 3, 200 mg QW) | AST (Screening) >20 × ULN, subjects (Cohort 3, 200 mg QW) | AST (any time during therapy) >10 × ULN-20 × ULN, subjects (Cohort 3, 200 mg QW) | AST (any time during therapy) >20 × ULN, subjects (Cohort 3, 200 mg QW) | Alkaline Phosphatase (Screening) >2.5-5.0 × ULN, subjects (Cohort 3, 200 mg QW) | Alkaline Phosphatase (Screening) >5.0-20.0 × ULN, subjects (Cohort 3, 200 mg QW) | Alkaline Phosphatase (Screening) >20.0 × ULN, subjects (Cohort 3, 200 mg QW) | Alkaline Phosphatase (any time during therapy) >2.5-5.0 × ULN, subjects (Cohort 3, 200 mg QW) | Alkaline Phosphatase (any time during therapy) >5.0-20.0 × ULN, subjects (Cohort 3, 200 mg QW) | Alkaline Phosphatase (any time during therapy) >20.0 × ULN, subjects (Cohort 3, 200 mg QW) | GI AE Leading to Study Drug Discontinuation: Abdominal pain, subjects (Cohort 3, 200 mg QW) | GI AE Leading to Study Drug Discontinuation: Nausea, subjects (Cohort 3, 200 mg QW) | GI AE Leading to Study Drug Discontinuation: Vomiting, subjects (Cohort 3, 200 mg QW) | Gastrointestinal AE Abdominal distention, subjects (Cohort 3, 200 mg QW) | Gastrointestinal AE Dysphagia, subjects (Cohort 3, 200 mg QW) | Gastrointestinal AE Epigastric discomfort, subjects (Cohort 3, 200 mg QW) | Gastrointestinal AE Gastritis, subjects (Cohort 3, 200 mg QW) | Gastrointestinal AE Haematochezia, subjects (Cohort 3, 200 mg QW) | Gastrointestinal AE Haemorroids, subjects (Cohort 3, 200 mg QW) | Gastrointestinal AE Large intestinal ulcer, subjects (Cohort 3, 200 mg QW) | Gastrointestinal AE Odynophagia, subjects (Cohort 3, 200 mg QW) | Gastrointestinal AE Oesophagitis, subjects (Cohort 3, 200 mg QW) | Gastrointestinal AE Retching, subjects (Cohort 3, 200 mg QW) | Hepatobiliary clinical AE Cholelithiasis, subjects (Cohort 3, 200 mg QW) | Hepatobiliary clinical AE Hepatomegaly, subjects (Cohort 3, 200 mg QW) | Intensity of Gastrointestinal AEs, Grade 5, subjects (Cohort 3, 200 mg QW) | TEAE Abdominal pain Grade 4, subjects (Cohort 3, 200 mg QW) | TEAE Abdominal pain Grade 5, subjects (Cohort 3, 200 mg QW) | TEAE Diarrhea Grade 4, subjects (Cohort 3, 200 mg QW) | TEAE Diarrhea Grade 5, subjects (Cohort 3, 200 mg QW) | TEAE Hypokalaemia Grade 3, subjects (Cohort 3, 200 mg QW) | TEAE Hypokalaemia Grade 4, subjects (Cohort 3, 200 mg QW) | TEAE Hypokalaemia Grade 5, subjects (Cohort 3, 200 mg QW) | TEAE Nausea Grade 4, subjects (Cohort 3, 200 mg QW) | TEAE Nausea Grade 5, subjects (Cohort 3, 200 mg QW) | TEAE Vomiting Grade 4, subjects (Cohort 3, 200 mg QW) | TEAE Vomiting Grade 5, subjects (Cohort 3, 200 mg QW)
1.06 fold: Serum ALT level, Median fold increase from Baseline at Follow-up Week 4 (Cohort 3, 200 mg QW)
5 (12.8%): Gastrointestinal AE Abdominal pain, subjects (Cohort 3, 200 mg QW) | TEAE Abdominal pain Overall Frequency, subjects (Cohort 3, 200 mg QW) | TEAE Diarrhea Grade 2, subjects (Cohort 3, 200 mg QW) | TEAE Hypokalaemia, subjects (Cohort 3, 200 mg QW)
14 (35.9%) n (%): Subjects completed study (Cohort 3, 200 mg QW)
10 (25.6%): Intensity of Gastrointestinal AEs, Grade 2, subjects (Cohort 3, 200 mg QW)
